Test results as given in ChEMBL document CHEMBL1201862, “PubChem BioAssay data set” (2004).
Calls of active or inactive are those of the source. Rule as the data show it, for most assays here: actives have a measured IC50 and inactives only a lower limit.

What was measured:
Format in all cases: functional
[1] = biological target: T1, Replicative DNA helicase DnaB (Mycobacterium tuberculosis, UniProt P9WMR3); assay: DnaB intein splicing inhibitors, dose response, biochemical, cell-free fluorescence (AID 449749)
T1 sequence (P9WMR3 whole entry): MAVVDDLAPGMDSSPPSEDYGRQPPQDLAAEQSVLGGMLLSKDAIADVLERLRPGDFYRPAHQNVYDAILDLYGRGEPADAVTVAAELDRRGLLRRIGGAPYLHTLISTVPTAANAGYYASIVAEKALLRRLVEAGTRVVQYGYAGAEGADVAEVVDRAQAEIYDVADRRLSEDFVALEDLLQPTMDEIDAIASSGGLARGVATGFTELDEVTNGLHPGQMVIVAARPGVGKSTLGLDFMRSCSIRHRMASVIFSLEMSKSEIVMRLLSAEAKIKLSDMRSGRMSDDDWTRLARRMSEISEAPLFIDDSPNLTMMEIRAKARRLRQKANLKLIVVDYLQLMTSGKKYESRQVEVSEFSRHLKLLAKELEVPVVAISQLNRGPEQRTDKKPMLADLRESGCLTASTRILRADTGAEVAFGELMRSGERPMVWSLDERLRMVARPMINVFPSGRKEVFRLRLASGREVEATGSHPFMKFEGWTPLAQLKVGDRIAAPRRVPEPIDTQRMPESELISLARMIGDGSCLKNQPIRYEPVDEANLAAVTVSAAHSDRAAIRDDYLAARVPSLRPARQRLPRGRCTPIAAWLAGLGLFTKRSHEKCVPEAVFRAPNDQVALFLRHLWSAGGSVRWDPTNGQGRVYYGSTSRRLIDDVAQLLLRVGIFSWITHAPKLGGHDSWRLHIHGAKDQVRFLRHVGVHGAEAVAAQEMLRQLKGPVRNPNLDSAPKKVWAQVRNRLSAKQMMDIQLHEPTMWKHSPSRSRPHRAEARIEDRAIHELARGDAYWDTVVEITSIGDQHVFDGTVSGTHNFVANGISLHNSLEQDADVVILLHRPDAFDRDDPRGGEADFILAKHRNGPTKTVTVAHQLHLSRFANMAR

[2] = biological target: T2, Caspase-3 (Homo sapiens, UniProt P42574);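 also: Dose-response selectivity test against caspase-3 for candidate inhibitors of sentrin-specific proteases (SENPs)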
T2 sequence (P42574 whole entry): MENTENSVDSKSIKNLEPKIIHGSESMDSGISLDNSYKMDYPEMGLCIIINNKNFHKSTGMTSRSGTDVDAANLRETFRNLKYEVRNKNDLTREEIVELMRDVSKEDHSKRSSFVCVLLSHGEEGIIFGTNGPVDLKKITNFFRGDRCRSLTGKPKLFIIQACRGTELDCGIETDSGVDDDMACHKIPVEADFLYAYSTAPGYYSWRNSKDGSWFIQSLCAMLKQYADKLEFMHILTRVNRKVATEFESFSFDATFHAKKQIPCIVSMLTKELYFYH

[3] = biological target: T3, Sentrin-specific protease 6 (Homo sapiens, UniProt Q9GZR1);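 also: Luminescence-based dose-response confirmatory assay of SENP6 inhibition, following up an ultra-high-throughput screen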
T3 sequence (Q9GZR1 whole entry): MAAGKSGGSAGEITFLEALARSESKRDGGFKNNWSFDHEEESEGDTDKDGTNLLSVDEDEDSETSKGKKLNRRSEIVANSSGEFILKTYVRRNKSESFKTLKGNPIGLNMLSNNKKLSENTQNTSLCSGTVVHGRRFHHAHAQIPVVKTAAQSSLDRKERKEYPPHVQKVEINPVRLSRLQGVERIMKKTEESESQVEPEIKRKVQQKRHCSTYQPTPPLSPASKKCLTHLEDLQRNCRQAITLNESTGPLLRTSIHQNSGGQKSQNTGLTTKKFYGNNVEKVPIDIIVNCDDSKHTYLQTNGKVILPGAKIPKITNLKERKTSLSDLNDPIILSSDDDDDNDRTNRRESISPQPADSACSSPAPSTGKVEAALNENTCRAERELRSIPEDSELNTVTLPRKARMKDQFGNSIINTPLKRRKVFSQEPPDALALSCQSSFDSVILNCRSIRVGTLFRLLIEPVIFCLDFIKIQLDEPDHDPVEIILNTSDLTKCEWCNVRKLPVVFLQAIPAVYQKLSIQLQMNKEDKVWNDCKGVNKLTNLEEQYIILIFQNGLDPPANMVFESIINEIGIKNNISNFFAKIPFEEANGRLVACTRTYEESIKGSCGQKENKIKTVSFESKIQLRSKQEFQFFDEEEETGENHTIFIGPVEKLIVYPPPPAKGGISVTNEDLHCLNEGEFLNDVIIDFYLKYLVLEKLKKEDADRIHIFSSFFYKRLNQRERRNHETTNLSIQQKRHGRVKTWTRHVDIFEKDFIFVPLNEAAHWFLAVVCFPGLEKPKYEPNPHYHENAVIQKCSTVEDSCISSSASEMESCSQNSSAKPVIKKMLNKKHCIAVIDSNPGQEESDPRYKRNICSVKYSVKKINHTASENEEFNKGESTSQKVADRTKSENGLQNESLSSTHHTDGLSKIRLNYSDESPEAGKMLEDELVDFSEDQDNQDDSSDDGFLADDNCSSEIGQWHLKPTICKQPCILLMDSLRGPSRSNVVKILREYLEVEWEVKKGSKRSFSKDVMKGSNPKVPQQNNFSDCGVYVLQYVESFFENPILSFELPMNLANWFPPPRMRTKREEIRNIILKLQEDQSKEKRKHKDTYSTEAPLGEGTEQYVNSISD

[4] = biological target: T4, Sentrin-specific protease 8 (Homo sapiens, UniProt Q96LD8);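 also: luminescence read-out of SENP8 inhibition, dose-response confirmation following an ultra-high-throughput screen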
T4 sequence (Q96LD8 whole entry): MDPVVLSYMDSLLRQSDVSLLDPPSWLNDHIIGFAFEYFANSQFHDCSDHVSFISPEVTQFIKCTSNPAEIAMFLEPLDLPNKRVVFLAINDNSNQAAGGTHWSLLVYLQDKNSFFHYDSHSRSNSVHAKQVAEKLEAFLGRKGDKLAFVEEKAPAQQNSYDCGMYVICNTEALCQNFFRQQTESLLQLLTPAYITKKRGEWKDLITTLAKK

Compound | AC50 [1] | IC50 [2] | IC50 [3] | IC50 [4]
CCC1CCCCN1S(=O)(=O)c1ccc(NC(=O)c2nc(S(C)(=O)=O)ncc2Cl)cc1 (stereo not drawn) | 1.43 µM (active) |  |  | 
CCCC[n+]1ccn(C2=C([N-]S(=O)(=O)c3ccc(Cl)cc3)C(=O)c3ccccc3C2=O)c1 |  | 55.7 µM (active) | 12.4 µM (active) | 38.2 µM (active)
CC(=O)c1cccc2c1N=C(c1[nH]c3ccccc3c1O)C2=O | 3.1 µM (active) | 11.1 µM (active) | 13.2 µM (active) | 12.3 µM (active)
